Test results from US20140000883A1, “PETROLEUM RECOVERY PROCESS AND SYSTEM” (Shell Oil Company, priority 2012, published 2014).
Several values for one entry are separate records, joined by “and”; a condition that tells them apart may be missing. Identical values can stand only once. Like-named read-outs stand apart in the source and are kept apart here.

What was measured:
[1] = Extraction of mined oil sands with solvents (bitumen recovery);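 on Recovered Bitumen: Bitumen mass includes 3 to 7 wt% residual solvent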
Description: The quality of dimethyl sulfide as an oil recovery agent based on the miscibility of dimethyl sulfide with a crude oil relative to other compounds was evaluated. […] Each oil sands sample was weighed and placed in a cellulose extraction thimble that was placed on a porous polyethylene support disk in a jacketed glass cylinder with a drip rate control valve. Each oil sands sample was then extracted with a selected solvent at a selected temperature (10° C. or 30° C.) in a cyclic contact and drain experiment, where the contact time ranged from 15 to 60 minutes. Fresh contacting solvent was applied and the cyclic extraction repeated until the fluid drained from the apparatus became pale brown in color.
The extracted fluids were stripped of solvent using a rotary evaporator and thereafter vacuum dried to remove residual solvent. […] The residual solids and extraction thimble were air dried, weighed, and then vacuum dried. […] Collectively, the weight of the solid or sample and thimble recovered after extraction plus the quantity of bitumen recovered after extraction divided by the weight of the initial oil sands sample plus the thimble provide the mass closure for the extractions.

[2] = SARA analysis of extracted bitumen samples; details: bitumen extracted at 30° C.
Description: The bitumen samples extracted at 30° C. from each oil sands sample were evaluated by SARA analysis to determine the saturates, aromatics, resins, and asphaltenes composition of the bitumen samples extracted by each solvent.

[3] = extraction at 10 C., not corrected for residual solvent
[4] = extraction at 30 C., not corrected for residual solvent

| SMILES | Weight Change ([1]; extraction at 10 C.) [g] | Recovered Bitumen [1, 3] [g] | Weight Change ([1]; extraction at 30 C.) [g] | Recovered Bitumen [1, 4] [g] | Recovered Bitumen [1] | Weight Change [1] | extraction of / miscibility with asphaltenes [2] |
| --- | --- | --- | --- | --- | --- | --- | --- |
| S=C=S [Carbon Disulfide, carbon disulfide] | 16.8 | 16.62 | 16.4 | 16.43 |  |  |  |
| ClC(Cl)Cl [Chloroform, chloroform] |  |  |  |  | 17.85 g and 18.62 g | 18.7 g and 19.4 g |  |
| ClCCl [Dichloromethane, dichloromethane] | 18.9 | 17.66 | 17.7 | 16.30 |  |  |  |
| CCOC(C)=O [Ethyl Acetate, ethyl acetate] | 11.2 | 10.32 | 17.7 | 11.46 |  |  | much less effective |
| C1CCOC1 [Tetrahydrofuran, tetrahydrofuran] | 17.7 | 16.72 | 18.0 | 17.67 |  |  |  |
| Cc1ccccc1C [o-Xylene, o-xylene] | 17.3 | 17.36 | 19.5 | 17.37 |  |  |  |
